Reference: BindingDB's records for doi:10.7270/Q2P26WT9 (The Scripps Research Institute Molecular Screening Center, 2014)

Target: T1, RNA-editing ligase 1, mitochondrial (Trypanosoma brucei brucei, UniProt P86926)
T1 sequence (P86926 whole entry): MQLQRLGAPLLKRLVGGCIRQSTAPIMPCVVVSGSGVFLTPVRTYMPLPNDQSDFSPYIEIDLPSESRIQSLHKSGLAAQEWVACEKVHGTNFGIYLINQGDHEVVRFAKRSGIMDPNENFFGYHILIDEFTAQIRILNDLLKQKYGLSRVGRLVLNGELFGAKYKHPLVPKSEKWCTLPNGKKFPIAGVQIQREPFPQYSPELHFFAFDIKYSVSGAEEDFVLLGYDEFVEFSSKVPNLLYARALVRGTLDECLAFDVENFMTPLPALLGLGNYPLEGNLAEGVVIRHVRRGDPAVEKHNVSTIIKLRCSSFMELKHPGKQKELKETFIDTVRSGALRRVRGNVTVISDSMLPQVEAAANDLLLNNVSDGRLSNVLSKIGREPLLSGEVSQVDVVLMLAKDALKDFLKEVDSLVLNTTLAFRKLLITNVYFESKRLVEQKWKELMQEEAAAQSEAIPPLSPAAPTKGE
Test: inhibition of trypanosome RNA editing ligase – biochemical, fluorescence, Trypanosoma brucei, dose response (AID 1117295)

SMILES	IC50
NC(=NNC=c1ccc(=C2C=CC(=O)C(C(=O)O)=C2)o1)N[N+](=O)[O-] [5-(5-{2-[amino(nitroimino)methyl]carbonohydrazonoyl}-2-furyl)-2-hydroxybenzoic acid]	21.2 µM
COc1ccc(Cn2c(Nc3cc(Cl)ccc3OC)c3[nH]cccc-3c2=O)cc1 [7-[(5-chloranyl-2-methoxy-phenyl)amino]-6-[(4-methoxyphenyl)methyl]-7H-pyrrolo[3,4-b]pyridin-5-one]	16.1 µM
Oc1ccccc1CN=Nc1cc(N2CCCC2)nc(N2CCCC2)n1 [(6E)-6-[[[2,6-bis(1-pyrrolidinyl)-4-pyrimidinyl]hydrazo]methylidene]-1-cyclohexa-2,4-dienone]	> 96.6 µM
